Results from patent US12678434B2, “Compositions and methods for modulating ACE2 receptor” (priority 2020, dated 2026).
“Also recorded” adds a separate entry of the source.

Columns and labels:
[1] = test system: SARS-CoV-2; experiment: Medication use in COVID-19 positive and negative patients (retrospective propensity-score-matched study of hospitalized patients); type: in vivo, human; conditions: for SARS-CoV-2 Positive Test Result, percentage of patients (infection rate): drug use group of PS-matched sample, hospitalized patients Jan. 1, 2020 to Dec. 30, 2020; for difference in SARS-CoV-2 infection rates between drug use and no drug use: PS-matched groups, significance defined as p<0.05
[2] = test system: VERO-E6 cells; type: cell-based, monkey; conditions: 100 μM drug for 6 hours without FBS, then spike protein (30 ug) for 12 hours
[3] = biological target: T1, Human recombinant ACE2 (Homo sapiens, UniProt Q9BYF1); type: biochemical
T1 construct: purchased R&D systems, Minneapolis, USA

[4] = SARS-CoV-2 positive patients, drug use group, PS-matched
[5] = patients who tested positive in PS-matched sample

T1 sequence (Q9BYF1 18-740 limits assumed): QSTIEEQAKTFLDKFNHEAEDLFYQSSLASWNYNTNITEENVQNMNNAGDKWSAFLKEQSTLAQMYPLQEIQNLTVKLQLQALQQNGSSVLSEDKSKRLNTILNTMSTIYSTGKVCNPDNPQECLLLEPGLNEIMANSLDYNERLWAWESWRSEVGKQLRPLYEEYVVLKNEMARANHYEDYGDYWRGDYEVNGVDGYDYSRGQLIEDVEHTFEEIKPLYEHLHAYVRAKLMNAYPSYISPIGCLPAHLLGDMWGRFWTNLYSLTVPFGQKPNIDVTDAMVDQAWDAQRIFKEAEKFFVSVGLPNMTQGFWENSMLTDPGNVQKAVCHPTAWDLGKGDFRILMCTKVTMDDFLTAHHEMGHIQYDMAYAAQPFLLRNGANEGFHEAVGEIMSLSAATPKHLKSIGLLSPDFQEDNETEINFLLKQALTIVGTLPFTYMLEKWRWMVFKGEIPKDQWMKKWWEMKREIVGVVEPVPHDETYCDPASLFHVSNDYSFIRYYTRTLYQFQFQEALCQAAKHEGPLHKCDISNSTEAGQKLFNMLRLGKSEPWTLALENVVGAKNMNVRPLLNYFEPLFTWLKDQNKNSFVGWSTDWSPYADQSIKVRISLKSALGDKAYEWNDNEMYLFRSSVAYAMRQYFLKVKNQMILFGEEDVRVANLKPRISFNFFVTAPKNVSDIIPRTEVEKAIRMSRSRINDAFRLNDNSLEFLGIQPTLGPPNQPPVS

CNC(=C[N+](=O)[O-])NCCSCc1ccc(CN(C)C)o1 [Ranitidine]
SARS-CoV-2 Positive Test Result, percentage of patients (infection rate) [1]: 15.29%

CCOC(=O)N1CCC(=C2c3ccc(Cl)cc3CCc3cccnc32)CC1 [Loratadine]
SARS-CoV-2 Positive Test Result, percentage of patients (infection rate) [1]: 18.65%

CN(C)CCOC(c1ccccc1)c1ccccc1 [Diphenhydramine]
SARS-CoV-2 Positive Test Result, percentage of patients (infection rate) [1]: 12.8% | spike protein in the cell lysate (western blot) [2]: no spike protein | concentration at transition point from inhibiting to activating the ACE2 receptor [3]: 1 µM

CN1CCCC(n2nc(Cc3ccc(Cl)cc3)c3ccccc3c2=O)CC1 (centres unmarked) [Azelastine]
SARS-CoV-2 Positive Test Result, percentage of patients (infection rate) [1]: 7.69%

O=C(O)COCCN1CCN([C@@H](c2ccccc2)c2ccc(Cl)cc2)CC1 [S-Cetirizine, dextrocetirizine]
fluorescence signal (ACE2 activity) upon further addition of drug [3]: further decreased

CC(C)(C(=O)O)c1ccc(C(O)CCCN2CCC(C(O)(c3ccccc3)c3ccccc3)CC2)cc1 (centres unmarked) [Fexofenadine]
SARS-CoV-2 Positive Test Result, percentage of patients (infection rate) [1]: 18.92%

NC(N)=Nc1nc(CSCCC(N)=NS(N)(=O)=O)cs1 [Famotidine]
SARS-CoV-2 Positive Test Result, percentage of patients (infection rate) [1]: 18.87%

CN1CCC[C@@H](n2nc(Cc3ccc(Cl)cc3)c3ccccc3c2=O)CC1 [R-Azelastine]
spike protein in the cell lysate (western blot) [2]: no spike protein | concentration at transition point from inhibiting to activating the ACE2 receptor [3]: 1 µM

CN1CCC(=C2c3ccccc3CC(=O)c3sccc32)CC1 [Ketotifen]
SARS-CoV-2 Positive Test Result, percentage of patients (infection rate) [1]: 0 (0%)

CN(C)CC/C=C1/c2ccccc2COc2ccc(CC(=O)O)cc21 [Olopatadine]
SARS-CoV-2 Positive Test Result, percentage of patients (infection rate) [1]: 18.75%

CN/C(=N/CCSCc1nc[nH]c1C)NC#N [Cimetidine]
SARS-CoV-2 Positive Test Result, percentage of patients (infection rate) [1]: 35.71%

OCCOCCN1CCN(C(c2ccccc2)c2ccc(Cl)cc2)CC1 (centres unmarked) [Hydroxyzine]
difference in SARS-CoV-2 infection rates between drug use and no drug use [1]: statistically significantly different | difference in SARS-CoV-2 infection rates between drug use and no drug use ([1]; listed as hydroxyzine): significant difference; also recorded: lower infection rates | ICU Admission, number of patients [1, 4]: 5 | ICU Admission, percentage of patients [1, 4]: 19.23% | ICU LOS (length of stay), mean (standard deviation) [1, 4]: 22.4 (26.43) | SARS-CoV-2 Positive Test Result, percentage of patients (infection rate) [1]: 12.62% | Odds Ratio for SARS-CoV-2 infection ([1]; multiple logistic regression model, drug use as covariate, PS-matched sample): 0.919 | difference in ICU admission rates between drug use and no drug use [1, 5]: not a significant difference | difference in ICU length of stay between drug use and no drug use [1, 5]: not a significant difference | spike protein in the cell lysate (western blot) [2]: no spike protein | fluorescence signal (ACE2 activity) upon further addition of drug [3]: increased

CN(C)CCC(c1ccc(Br)cc1)c1ccccn1 (centres unmarked) [Brompheniramine]
SARS-CoV-2 Positive Test Result, percentage of patients (infection rate) [1]: 33.33%

O=C(O)COCCN1CCN([C@H](c2ccccc2)c2ccc(Cl)cc2)CC1 [Levocetirizine, levocetirizine]
SARS-CoV-2 Positive Test Result, percentage of patients (infection rate) [1]: 15.38% | spike protein in the cell lysate (western blot) [2]: no spike protein | fluorescence signal (ACE2 activity) upon further addition of drug [3]: further decreased

CN(C)CCC(c1ccc(Cl)cc1)c1ccccn1 (centres unmarked) [Chlorpheniramine]
SARS-CoV-2 Positive Test Result, percentage of patients (infection rate) [1]: 16.67%

O=C(O)COCCN1CCN(C(c2ccccc2)c2ccc(Cl)cc2)CC1 (centres unmarked) [Cetirizine]
SARS-CoV-2 Positive Test Result, percentage of patients (infection rate) [1]: 17.97%

CN1CCC[C@H](n2nc(Cc3ccc(Cl)cc3)c3ccccc3c2=O)CC1 [S-Azelastine]
concentration at transition point from inhibiting to activating the ACE2 receptor [3]: 1 µM
